Data as given in ChEMBL document CHEMBL1201862, “PubChem BioAssay data set” (2004).
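Dose response: 5 concentrations. Exposure: 48 h. Format: 96-well plates. Endpoint: linear interpolation; highest concentration if not reached. GI50: concentration for 50% inhibition of growth.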 Activity calls are given as the source filed them. Cut-off read from the data, not from the text of the source: active = GI50 up to about 1.1 µM and inactive = higher.

Tests used:
Assay in all cases: growth of human tumour cells (NCI), 48 h
[1] = test system: SF-539
[2] = test system: SK-MEL-2
[3] = test system: NCI-H23
[4] = test system: SNB-75
[5] = test system: HOP-92
[6] = test system: NCI-H460
[7] = test system: K562
[8] = test system: SNB-19
[9] = test system: OVCAR-5
[10] = test system: HCT-116
[11] = test system: OVCAR-4
[12] = test system: SF-295
[13] = test system: KM12
[14] = test system: RPMI-8226
[15] = test system: TK-10
[16] = test system: MDA-MB-435
[17] = test system: A549
[18] = test system: SK-MEL-28
[19] = test system: COLO 205
[20] = test system: Malme-3M
[21] = test system: HCC 2998
[22] = test system: ACHN
[23] = test system: IGROV-1
[24] = test system: LOX IMVI
[25] = test system: SK-MEL-5
[26] = test system: SK-OV-3
[27] = test system: HOP-62
[28] = test system: UACC-257
[29] = test system: MDA-MB-231
[30] = test system: UACC-62
[31] = test system: NCI/ADR-RES
[32] = test system: U-251
[33] = test system: 786-0
[34] = test system: CCRF-CEM
[35] = test system: DU-145
[36] = test system: Hs-578T
[37] = test system: HT-29
[38] = test system: BT-549
[39] = test system: SF-268
[40] = test system: SR
[41] = test system: MDA-N
[42] = test system: NCI-H226
[43] = test system: MOLT-4
[44] = test system: A498
[45] = test system: UO-31
[46] = test system: NCI-H522
[47] = test system: CAKI-1
[48] = test system: OVCAR-8
[49] = test system: OVCAR-3
[50] = test system: T47D
[51] = test system: SW-620
[52] = test system: SN12C
[53] = test system: PC-3
[54] = test system: RXF 393
[55] = test system: HCT-15
[56] = test system: M14
[57] = test system: MCF7
[58] = test system: HL-60
[59] = test system: EKVX

Measured: GI50

Brc1ccc2c(-c3csc(-c4c[nH]c5ccc(Br)cc45)n3)c[nH]c2c1
3.38 µM: [55]
inactive: [1] 3.87 µM | [2] 5.35 µM | [3] 2.87 µM | [4] 10.2 µM | [5] 3.2 µM | [6] 2.44 µM | [7] 3.53 µM | [8] 4.09 µM | [9] 2.44 µM | [10] 3.64 µM | [11] 6.9 µM | [12] 3.19 µM | [13] 2.42 µM | [14] 3.44 µM | [15] 3.94 µM | [16] 4.46 µM | [17] 4.2 µM | [18] 7.59 µM | [19] 2.88 µM | [20] 5.4 µM | [21] 2.32 µM | [22] 2.96 µM | [23] 2.43 µM | [24] 1.94 µM | [25] 3.65 µM | [26] 11.2 µM | [27] 12.1 µM | [28] 7.94 µM | [29] 3.42 µM | [30] 3.18 µM | [31] 4.83 µM | [32] 4.26 µM | [33] 2.31 µM | [34] 3.79 µM | [35] 3.86 µM | [36] 5.78 µM | [37] 1.76 µM | [38] 12.6 µM | [39] 3.6 µM | [40] 3.89 µM | [41] 5.15 µM | [42] 3.42 µM | [43] 2.84 µM | [44] 3.01 µM | [45] 3.82 µM | [46] 2.11 µM | [47] 3.01 µM | [48] 5.52 µM | [49] 6 µM | [50] 2.94 µM | [51] 3.65 µM | [52] 5.92 µM | [53] 4.81 µM | [54] 3.02 µM | [56] 3.12 µM | [57] 3.82 µM | [58] 5.22 µM | [59] 1.27 µM

N#Cc1c(NC(=S)NCc2ccccc2)sc2c1CCN(N1CCc3c(sc(NC(=S)NCc4ccccc4)c3C#N)C1)C2
> 100 µM: [55]
inactive: [1] > 100 µM | [2] > 100 µM | [3] > 100 µM | [4] > 100 µM | [5] > 100 µM | [6] > 100 µM | [7] > 100 µM | [8] > 100 µM | [9] > 100 µM | [10] > 100 µM | [11] > 100 µM | [12] > 100 µM | [13] > 100 µM | [15] > 100 µM | [16] > 100 µM | [17] > 100 µM | [18] > 100 µM | [19] > 100 µM | [20] > 100 µM | [21] > 100 µM | [22] > 100 µM | [23] > 100 µM | [24] > 100 µM | [25] > 100 µM | [26] > 100 µM | [27] > 100 µM | [28] > 100 µM | [29] > 100 µM | [30] > 100 µM | [31] > 100 µM | [32] > 100 µM | [33] > 100 µM | [34] > 100 µM | [35] > 100 µM | [36] > 100 µM | [37] > 100 µM | [38] > 100 µM | [39] > 100 µM | [40] > 100 µM | [41] > 100 µM | [42] > 100 µM | [43] > 100 µM | [44] > 100 µM | [45] > 100 µM | [46] > 100 µM | [47] > 100 µM | [48] > 100 µM | [49] > 100 µM | [50] > 100 µM | [51] > 100 µM | [52] > 100 µM | [53] > 100 µM | [54] > 100 µM | [56] > 100 µM | [57] > 100 µM | [58] > 100 µM | [59] > 100 µM

COc1ccc(/C=C/C(=O)N[C@@H]2C(=O)N3[C@@H]2SC(C)(C)[C@@H]3C(=O)O)cc1OC
inactive: [1] > 100 µM | [2] > 100 µM | [3] > 100 µM | [4] > 100 µM | [5] > 100 µM | [6] > 100 µM | [7] > 100 µM | [8] > 100 µM | [9] > 100 µM | [10] > 100 µM | [11] > 100 µM | [12] > 100 µM | [13] > 100 µM | [14] > 100 µM | [15] > 100 µM | [16] > 100 µM | [17] > 100 µM | [18] > 100 µM | [19] > 100 µM | [21] > 100 µM | [22] > 100 µM | [24] > 100 µM | [25] > 100 µM | [26] > 100 µM | [27] > 100 µM | [28] > 100 µM | [29] > 100 µM | [30] > 100 µM | [31] > 100 µM | [32] > 100 µM | [33] > 100 µM | [34] > 100 µM | [35] > 100 µM | [36] > 100 µM | [37] > 100 µM | [38] > 100 µM | [39] > 100 µM | [40] > 100 µM | [41] > 100 µM | [42] > 100 µM | [43] > 100 µM | [44] > 100 µM | [45] > 100 µM | [46] 85.5 µM | [47] > 100 µM | [48] > 100 µM | [49] > 100 µM | [50] > 100 µM | [51] > 100 µM | [52] > 100 µM | [53] > 100 µM | [54] > 100 µM | [56] > 100 µM | [57] > 100 µM | [58] > 100 µM | [59] > 100 µM
> 100 µM: [55]
